According to a melting point compilation (Tetko et al.; mined from patent text by program, amines drawn as free bases though some values may be those of a salt):
Non-standard residues stand in square brackets, D forms with d. Residues, ends and D or L forms follow the SMILES beside them. ξ: configuration not given here. *: point of attachment. Boc = CC(C)(C)OC(=O)*; ξA = CC(N)C(=O)O

SMILES	melting point [°C]
C=CCc1cc2c(cc1O)CC(=O)N2CC	130 to 131
CNC(=O)N(O)C(C)c1ccc(OC)cc1 (centres undefined)	102 to 104
CCOC(=O)c1cc(=O)c2ccc3nc(C(=O)OC)cc(Cl)c3c2o1	209
COc1ccc2c3c(c(=O)oc2c1)CN(Cc1cccc(Cl)c1)CC3	112 to 115
N#Cc1cc(-c2ccncn2)c[nH]c1=O	> 250
COc1ccc(Cl)cc1C(=O)NCC1CCOc2cc(OC)c(S(N)(=O)=O)cc21 (centres undefined)	202
O=C(CCc1ccccc1)N[C@H]1C[C@H](C(=O)O)Nc2cc(Cl)cc(Cl)c21 (relative stereo)	188
COCCOc1cc2ncnc(Oc3ccc(Cl)cc3F)c2cc1OC	167 to 168
COc1ccc(C(F)(F)F)cc1-n1c(=O)[nH]c2cc(C(F)(F)F)ccc21	226
O=C(O)C(=Cc1ccc(OCc2ccccc2)cc1OCc1ccccc1)Cc1ccccc1	175 to 176
COc1cc2nc(Cl)nc(Nc3ccc4[nH]ncc4c3)c2cc1OC	279 to 284
COc1ccc(Nc2ccnc3nc(CO)ccc23)cc1	275 to 281
COc1ccccc1NS(=O)(=O)c1ccc([N+](=O)[O-])cc1[N+](=O)[O-]	172 to 173
C[C@@H]1NC(=O)[C@H]2Cc3c([nH]c4ccccc34)[C@@H](c3ccc4occc4c3)N2C1=O	150 to 151
CCCc1c(OCCCCCc2c(O)c(O)c(Cl)c(Cl)c2Cl)ccc(C(=O)O)c1O	193 to 196
CN1CCN(c2ccc(Nc3ncc4ccc(-c5cccc6c5OCCO6)n4n3)cc2)CC1	212 to 213
COC(CCCNC(=O)CCCCCCCCC(=O)NCCCC(OC)OC)OC	83.5 to 85.5
O=C(Nc1ccc(Oc2cncc(Cl)c2)nc1)c1ccccc1C(c1ccc(O)cc1)c1ccc(O)cc1	122 to 125
Cc1sc2c(c1C(=O)CCN1CCN(c3nsc4ccccc34)CC1)NC(=O)CCC2	146 to 147
CC(C)(C)OC(=O)n1cc(I)c2ccncc21	68 to 72
O=c1nc(-c2ccccn2)sc2ccc(OCc3ccccc3)cc12	198 to 199
CN1N=C(c2ccc(Cl)cc2)CC1=O	189
Cc1ccc(S(N)(=O)=O)cc1NC(=O)c1cnn2c(C(F)(F)F)cc(-c3ccc(C(F)(F)F)cc3)nc12	310
CCCC(=Cc1ccccc1)CN1CCc2nc(N)sc2CC1	77 to 80
COCC1COc2cc3ncnc(Nc4cccc(Cl)c4)c3cc2O1 (centres undefined)	277 to 282

SMILES	melting point [°C]
CCOC(=O)N1CC[C@H](Oc2cccc(F)c2)[C@H](c2ccccc2)C1 (relative stereo)	74 to 76.5
CCSN(C)C(=O)Nc1ccc(C)c(Cl)c1	< 50
Cc1c(F)c(F)c(COC(=O)[C@@H]2[C@@H](C=O)C2(C)C)c(F)c1F	43.2
Cc1cccc2c1C(=O)N1CCCC1C(=O)N2 (centres undefined)	212 to 214
CCC12CCC3C4CCC(=O)C=C4C(Cl)CC3C1C(OC(C)=O)CC2=O (centres undefined)	115
O=C(C(Cl)Cl)N1CCCCCCC1	83
Brc1csc(C#Cc2ccccc2)n1	79 to 82
CCOCc1nc2c(N)nc3ccccc3c2n1Cc1cc(-c2ccc(F)cc2)no1	203 to 204
Clc1cc(Cl)c2cccc3c2c1N=C3NCCCn1ccnc1	182 to 183
CC(C)n1nc(-c2c(Nc3ccccc3)nc(N)nc2-c2ccccc2)ccc1=O	240 to 242
Cn1nc(-c2cnc3[nH]cc(C(=O)NC4CCOCC4)c3n2)c2ccc(Cl)cc21	355 to 358
CCC1CC(=O)N(Cc2cccc(NC(=O)C(F)(F)C(F)(F)F)c2)N=C1c1ccc(OC)c(OC2CCCC2)c1 (centres undefined)	126
CS(=O)(=O)c1ccc(-c2nc(-c3ccc(F)cc3)c(-c3ccncc3)[nH]2)cc1	148 to 149
O=C(Nc1ccc(Cl)c(C(F)(F)F)c1)c1ccccc1SSc1ccccc1C(=O)Nc1ccc(Cl)c(C(F)(F)F)c1	129 to 131
CC(C)Sc1c(C(N)=O)n(C)c2ccc(OCc3ccccc3)cc12	151 to 154
CC(=O)SCC(C)C(=O)N(CC(=O)O)C1CCCCCC1 (centres undefined)	116 to 117
CON=C1CN(c2c(F)c(N)c3c(=O)c(C(=O)O)cn(C4CC4)c3c2F)CC12CN(C)C2	220 to 222
Nc1ccccc1-c1nnc(-c2ccc(C(=O)O)cc2)o1	> 300
CC(C(N)=O)c1ccc2nc(-c3ccccc3)oc2c1 (centres undefined)	193
COc1cccc2cc(C(=O)OCC(C)C)[nH]c12	100 to 101
OCc1c[nH]c(Cc2ccccc2)n1	134 to 135
COc1ccc(Cl)cc1C1(F)C(=O)Nc2c(C(F)(F)F)cccc21 (centres undefined)	230 to 233
CN(C)c1ccc(-c2cc3nccnc3[nH]2)cc1CCCO	203 to 204
CCOc1ccccc1[C@H]1O[C@H](CC(=O)O)C(=O)N(CC(C)C)c2ccc(Cl)cc21 (relative stereo)	190 to 192
COc1cc(OS(=O)(=O)OC(F)(F)F)c2c(=O)c3ccc(Cl)cc3n(C)c2c1	234 to 236

SMILES	melting point [°C]
N#CCCn1ccc(NC(=S)NCC(F)(F)F)n1	164 to 165
Cc1cc2c3c(ccc2cc1C=O)OC(=O)C3(C)C	193 to 195
CCc1[nH]n(C2CCCC2)c2nc(Cc3ccc(OCc4nnn[nH]4)cc3)nc(=O)c1-2	240 to 242
COC(=O)c1ccc(OC2=C3N=C4CCCCC4=C3C(Cc3ccc(C)cc3)C=C2)o1 (centres undefined)	80 to 81
N#CCc1cc(I)cc(Cc2nc3c(F)c(F)cc(F)c3s2)c1	127 to 130
Cc1c(C)c2c(c(C)c1NC(=O)OC(C)(C)C)C(O)(c1ccc(C(C)C)cc1)C(C)(C)O2 (centres undefined)	155 to 157
Cn1c(=O)n(Cc2ccc(Cl)cc2Cl)c(=O)c2ccc(C(=O)O)cc21	308 to 310
O=C(Nc1cccc(-c2cc(-c3c(Cl)cccc3Cl)no2)c1)C(Cl)Cl	167
CC(C)C(N)=C(C#N)C(N)=S	112 to 114
Brc1nsc2nc3ccccc3n12	189 to 190
Cc1oc2ccccc2c1C(=O)NCc1ccc2c(Br)c(O)ccc2c1	179 to 181
CCCCc1nc2c(N)nc3cccnc3c2n1CCCOC(C)C	174 to 175
Cc1c(O)nc2ccc(F)cc2c1C(=O)O	> 305
CC(=O)OC1CSC(Oc2c(C#N)ccnc2C)C(OC(C)=O)C1OC(C)=O (centres undefined)	109 to 113
COc1c(C=O)c2cc(Cl)c(Cl)cc2n1C1CC(O)C(CO)O1 (centres undefined)	186 to 187
Cc1ccccc1C(=O)Nc1ccc(C(=O)N2CCCC(CN)c3ccccc32)cc1 (centres undefined)	233 to 235
O=c1[nH]c(=S)[nH]cc1Cc1cnc2ccccc2c1	290 to 292
COc1cc(C(=O)NS(=O)(=O)c2ccccc2)ccc1CN1CCOc2ccc(NC(=O)OC3CCCC3)cc21	186 to 187
O=c1cc(-c2ccncc2)nc2n1CC(F)(F)CN2	239 to 240
Clc1cccc(Nc2nc3nonc3nc2Nc2cccc(Cl)c2)c1	238
Cc1cccc(C(C)C)c1NC(=O)CCCCCBr	66 to 67
Cc1cccc(C)c1N(CCCc1cccnc1)C(=O)CC(C)N1C(=O)c2ccccc2C1=O (centres undefined)	169 to 171
COc1ccc(C)cc1C(CCO)c1cc(C)ccc1OC	117
CSCc1c(N)c([N+](=O)[O-])cc(F)c1F	110 to 112
COC1(OC)CCCCC1N=O (centres undefined)	108 to 120

SMILES	melting point [°C]
CSc1ccc(C=CC(=O)c2ccc([N+](=O)[O-])cc2)cc1	160
CCN(CC)CCC1(C(N)=O)Cc2ccccc2N(CC)c2ccccc21 (centres undefined)	95 to 97
CCOC(=O)NC(=O)C(c1ccccc1)c1ccccc1	133
CN1CCC2(CC1)NC(=S)N(c1ccc(C#N)c(C(F)(F)F)c1)C2=O	229 to 230
O=C(CN1CCC(Cc2ccccc2)CC1)Nc1ccc2[nH]ncc2c1	170 to 174
CC(C)c1ccc(Oc2ccc(C(=O)C=CC(=O)O)cc2)cc1	133 to 134
Cc1cn(-c2ccc(N3C[C@H](COS(C)(=O)=O)OC3=O)cc2F)cn1	151 to 153
CCc1cccc(C)c1CNc1cc(C(=O)OC)cn2nc(C)nc12	140
CC(C)n1cnc2c(N[C@H](CO)c3ccccc3)nc(Cl)nc21	150 to 152
CC1C(=O)N(c2ccc(Oc3ccccc3)cc2)C(=S)N1c1ccccc1 (centres undefined)	132
N#CC1CCc2ccc([N+](=O)[O-])cc2C(=O)C1 (centres undefined)	107
CC(=NNC(=O)c1cccc(C)c1)c1cc(Cl)cc(Cl)c1O	221 to 223
Nc1cc(N)cc(C(c2c(O)c3c(oc2=O)CCCCCC3)C2CC2)c1 (centres undefined)	87
CCOC1(OCCc2nc(C(C)C)c(Sc3cc(Cl)cc(Cl)c3)n2C)CCCCCC1	53 to 54
COc1cc(Nc2c(C#N)cnc3cc(-c4ccc(CNCCS(C)(=O)=O)o4)ccc23)c(Cl)cc1Cl	171 to 174
COC(=O)CNC(=O)C(C)NC(=O)CNC(=O)OC(C)(C)C (stereo not drawn) (Boc-Gly-[ξA]-Gly-OMe)	98 to 100
CCOC(=O)C1=C(c2ccc(-n3c(C)nc4cnccc43)cc2)NC(C)=C(C(=O)Nc2ccccn2)C1c1ccccc1Cl (centres undefined)	226 to 228
CCOc1cc2c(cc1S(N)(=O)=O)C(CNC(=O)c1cc(Cl)ccc1OC)CCO2 (centres undefined)	204 to 205
NC(=O)c1ccc(C(F)(F)F)c(Br)c1	148 to 150
COc1cc2c(cc1OC)C(C(C#N)SCCOC(C)=O)=NCC2 (centres undefined)	157
CCC1(CCC(=O)OC)CCCN2CCc3c([nH]c4ccccc34)C21 (centres undefined)	110
CC(C)Oc1nccc2c1C(c1ccccc1C(F)(F)F)c1c(cc[nH]c1=O)N2 (centres undefined)	315
Cc1ccccc1-c1cnc2c(C(F)(F)F)cccc2c1-c1cccc(NC(=O)Nc2ccccc2F)c1	218 to 220
Cc1noc(C)c1CN1CC2(COc3cc4c(cc32)OCO4)c2ccccc21 (centres undefined)	165 to 167
